Consider 15 molecules from PubChem BioAssay (NCI).

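Step 1: Grow cells in 96-well plates. Step 2: Expose to compound for 48 hours at 5 concentrations. Step 3: Interpolate endpoints linearly; if unreached, use highest concentration. GI50 = concentration required for 50% inhibition of growth. Definition used: TGI = concentration required for complete inhibition of growth.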

Holding throughout (test): growth of human tumour cells (NCI), 48 h
For experiment [1], the system named is HOP-62 NSCLC.
The test system of experiment [2] is HCT-15 colon.
Experiment [3] has as its system K-562 leukemia.
Experiment [4] has as its system HOP-92 NSCLC.
For experiment [5], the system named is LOX IMVI melanoma.
Experiment [6] deals with OVCAR-3 ovarian.
Experiment [7] deals with MOLT-4 leukemia.
In experiment [8] the test system is M14 melanoma.
Experiment [9] deals with EKVX NSCLC.
The subject of experiment [10] is CAKI-1 renal.

As for `Nn1nnc2ccccc21`, the TGI in experiment [1], in experiment [2], in [3], in experiment [4], in [5] and in experiment [6] was over 100 µM in each case. The TGI in experiment [7], in [8] and in experiment [9] was over 100 µM throughout.

For the molecule `CCc1nc2c([nH]1)C(=O)c1ccccc1C2=O`, the TGI is over 100 µM in [1]; over 100 µM in [10]; over 100 µM in [2]; over 100 µM in experiment [3]; 61.7 µM in experiment [6]; over 100 µM in experiment [7]. Moreover, the TGI in experiment [8] and in [9] was over 100 µM each time.

Turning to `COc1ccc(CCn2ccc(=O)c(O)c2C)cc1OC`, the TGI in [1] was over 100 µM; in experiment [10], 12 µM; in [2], over 100 µM; in experiment [3], over 100 µM; in experiment [4], 80.5 µM; in experiment [5], 78.9 µM. For the same molecule, the values for the TGI in [7], in experiment [8] and in [9] were over 100 µM, 36.7 µM and over 100 µM, respectively.

`COc1ccccc1Cn1c2c(c3cc(O)ccc31)C(=O)c1ccccc1C2=O`: the TGI in experiment [1] was over 100 µM; in experiment [10], 69.7 µM; in experiment [2], over 100 µM; in experiment [3], over 100 µM; in experiment [5] it was over 100 µM; in [6], over 100 µM. In addition, the TGI in experiment [7] and in [8] was over 100 µM each time.

As to `Cn1c(=O)c2[nH]c(Nc3cccc(Cl)c3)nc2n(C)c1=O`, the TGI in experiment [1] was over 10 µM; in experiment [10] it was over 10 µM; in [2], over 10 µM; in experiment [3], over 10 µM; in experiment [4], 6.56 µM; in [5], over 10 µM. The TGI in experiment [7], in experiment [8] and in [9] was over 10 µM each time.

Regarding `O=c1ccn([C@@H]2C=C(CO)[C@@H](O)[C@H]2O)c(=O)[nH]1`, the TGI in experiment [1], in experiment [10], in experiment [2], in [4], in [5] and in experiment [6] was over 625 µM each time.

Consider `CC(=O)Nc1ccc2c(c1)nc1c3ccccc3ccn21`, for which the TGI in experiment [1], in experiment [10], in experiment [2], in experiment [3], in [4] and in experiment [5] was over 100 µM throughout. The TGI in experiment [7], in experiment [8] and in [9] was over 100 µM each time.

Consider `CCC(C)C(NC(=O)C(CCCC[N+](=N)N)NC(=O)C(CCCC[N+](=N)N)NC(=O)c1ccc(OC)cc1)C(=O)NC(CCCC[N+](=N)N)C(=O)N1CCCC1C(=O)NC(CCCCN)C(=O)NC(CC(C)C)C(N)=O` (stereo not drawn), for which the TGI in [1], in [10], in experiment [2], in experiment [3], in experiment [5] and in experiment [6] was over 100 µM in each case. Besides, the TGI in experiment [7], in [8] and in experiment [9] was over 100 µM each time.

Consider `C=CCN(c1cc(OC)c2[nH]c(C(=O)O)c(C)c2c1[N+](=O)[O-])S(C)(=O)=O`, for which the TGI in [1], in [10], in experiment [2], in [3], in experiment [5] and in experiment [6] was over 100 µM in each case. The TGI in experiment [7], in experiment [8] and in experiment [9] was over 100 µM in each case.

Regarding `CN(C)CCN1C(=O)N(CCN(C)C)c2c3cc(O)ccc3nc3c([N+](=O)[O-])ccc1c23`, the TGI was 47.9 µM in experiment [10]; 20.8 µM in experiment [2]; 14.5 µM in experiment [3]; 37.3 µM in [4]; 24.3 µM in experiment [5].

In the case of `Clc1sc(Cl)c2c1[C@H](Br)C[C@@H]2Cl`, the TGI in [1] is over 100 µM; in experiment [10], 64.2 µM; in experiment [2] it was 40.7 µM; in experiment [3] it was over 100 µM; in experiment [5], 49.5 µM; in experiment [6], 64.9 µM. The TGI in experiment [7] is 53.1 µM; in experiment [8] it was 54.5 µM; in experiment [9] it was over 100 µM.

As for `CC1OC2OC3C(OCC(O)C3O)OC(=O)[C@]34CCC(C)(C)CC3C3=CCC5[C@@]6(C)C[C@H](O)[C@H](OC7OC(CO)C(O)C(O)C7OC7OC(COC(=O)CC(C)(O)CC(=O)OC1C(OC1OC(CO)C(O)C(O)C1O)C2O)C(O)C(O)C7O)[C@@](C)(CO)C6CC[C@@]5(C)[C@]3(C)CC4` (stereo partly drawn), the TGI in experiment [1] was 3.13 µM; in [10], 17.7 µM; in experiment [2], 15.7 µM; in experiment [4] it was 4.31 µM; in experiment [5], 12.1 µM; in experiment [6], 15.2 µM. Besides, the TGI in [7] stood at 12.7 µM; in experiment [8], 8.44 µM.

On to `CN(C)C(=O)/N=C1\SC(=Nc2ccccc2)C(=Nc2ccccc2)N1c1ccc([N+](=O)[O-])cc1`, for which the TGI in [1], in [10], in [2], in experiment [3], in experiment [6] and in experiment [7] was over 100 µM throughout. In experiment [8], this molecule yielded a TGI of over 100 µM.

For `O=C1c2cccnc2C(=O)c2c1nc1ccccc1c2-c1ccc2c3c(nc4ccccc42)C(=O)c2cccnc2-c13`, the TGI was 22.9 µM in experiment [1]; 10 µM in experiment [10]; 1.76 µM in experiment [2]; over 35.3 µM in [3]; 30.5 µM in [4]; 9.12 µM in experiment [5]. Moreover, the TGI worked out at 5.66 µM in [7], 4.55 µM in experiment [8] and 6.69 µM in experiment [9].

`O=C1c2cc3c(cc2-c2c1c1cc(F)c(F)cc1c(=O)n2C[C@H](O)CO)OCO3`: the GI50 in experiment [1] was 0.0225 µM; in experiment [10] it was 0.0288 µM; in experiment [2], 0.19 µM; in experiment [3], 0.069 µM; in experiment [6], 0.224 µM; in experiment [7], 0.0317 µM. In addition, the GI50 in experiment [9] was 0.652 µM. In addition, the TGI in experiment [1] was 0.186 µM; in experiment [10], 0.206 µM; in experiment [2], 1.74 µM; in [3], over 100 µM; in experiment [6] it was 0.753 µM; in experiment [7], over 100 µM. In experiment [9], the TGI was 8.77 µM.
